Several values for one entry are separate records, joined by “and”; a condition that tells them apart may be missing. Equal values may be shown once. Inconclusive results and toxic doses are left out. No stated cut-off is given here; in the data, active means T/C of 150% or more; inactive means T/C below 125%.
System: L1210 leukemia ip in BDF1 mice, survival T/C
Test: NCI In Vivo Anticancer Drug Screen. Data for tumor model L1210 Leukemia (intraperitoneal) in B6D2F1 (BDF1) mice
Settings: endpoint: mean survival time, higher = longer survival
How it was run: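 Read-out is survival time, reported as the treated-group measurement over the vehicle-control measurement.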

[1] = dose: 100.0 mg/kg/injection, schedule: Q01DX001 (ip), vehicle: saline
[2] = dose: 100.0 mg/kg/injection, schedule: Q04DX003 (ip), vehicle: Klucel (hydroxypropylcellulose) (HPC)
[3] = dose: 200.0 mg/kg/injection, schedule: Q01DX001 (ip), vehicle: saline
[4] = dose: 200.0 mg/kg/injection, schedule: Q04DX003 (ip), vehicle: Klucel (hydroxypropylcellulose) (HPC)
[5] = dose: 400.0 mg/kg/injection, schedule: Q04DX003 (ip), vehicle: Klucel (hydroxypropylcellulose) (HPC)
[6] = dose: 100.0 mg/kg/injection, schedule: Q04DX003 (ip), vehicle: saline with Tween-80
[7] = dose: 200.0 mg/kg/injection, schedule: Q04DX003 (ip), vehicle: saline with Tween-80
[8] = dose: 400.0 mg/kg/injection, schedule: Q04DX003 (ip), vehicle: saline with Tween-80
[9] = dose: 25.0 mg/kg/injection, schedule: Q01DX009 (ip), vehicle: Klucel (hydroxypropylcellulose) (HPC)
[10] = dose: 400.0 mg/kg/injection, schedule: Q01DX009 (ip), vehicle: Klucel (hydroxypropylcellulose) (HPC)
[11] = dose: 100.0 mg/kg/injection, schedule: Q04DX002 (ip), vehicle: Klucel (hydroxypropylcellulose) (HPC)
[12] = dose: 200.0 mg/kg/injection, schedule: Q04DX002 (ip), vehicle: Klucel (hydroxypropylcellulose) (HPC)
[13] = dose: 400.0 mg/kg/injection, schedule: Q04DX002 (ip), vehicle: Klucel (hydroxypropylcellulose) (HPC)
[14] = dose: 100.0 mg/kg/injection, schedule: Q01DX001 (ip), vehicle: saline with Tween-80
[15] = dose: 200.0 mg/kg/injection, schedule: Q01DX001 (ip), vehicle: saline with Tween-80
[16] = dose: 400.0 mg/kg/injection, schedule: Q01DX001 (ip), vehicle: saline with Tween-80
[17] = dose: 400.0 mg/kg/injection, schedule: Q01DX001 (ip), vehicle: saline
[18] = dose: 100.0 mg/kg/injection, schedule: Q01DX009 (ip), vehicle: Klucel (hydroxypropylcellulose) (HPC)

Measured: T/C

NC(=S)N/N=C/c1ccco1
inactive: dose: 25.0 mg/kg/injection, schedule: Q04DX003 (ip), vehicle: saline 105 % of control | dose: 50.0 mg/kg/injection, schedule: Q04DX003 (ip), vehicle: saline 109 % of control | [1] 101 % of control | [2] 93 % of control | dose: 100.0 mg/kg/injection, schedule: Q04DX003 (ip), vehicle: saline 94 % of control and 100 % of control | [3] 104 % of control | [4] 96 % of control | [5] 103 % of control

Nc1nc(N)c(-c2ccc(Cl)cc2)c(CNc2ccc([N+](=O)[O-])cc2)n1
inactive: [6] 109 % of control | [7] 95 % of control | [8] 95 % of control

Cc1ccc([N+](=O)[O-])cc1NC(=O)Nc1cccc(F)c1
inactive: dose: 6.25 mg/kg/injection, schedule: Q01DX009 (ip), vehicle: Klucel (hydroxypropylcellulose) (HPC) 93 % of control | dose: 12.5 mg/kg/injection, schedule: Q01DX009 (ip), vehicle: Klucel (hydroxypropylcellulose) (HPC) 87 % of control | [9] 92 % of control | [10] 86 % of control

COC(OC)c1nc(N)[nH]c(=O)c1Cc1cccc2ccccc12
inactive: [11] 97 % of control | [12] 86 % of control | [13] 105 % of control

O=C(COc1ccc(Cl)c(Cl)c1)NCCc1cc[n+](Cc2ccc(Cl)c(S(=O)(=O)F)c2)cc1
inactive: dose: 100.0 mg/kg/injection, schedule: Q01DX001 (ip), vehicle: Klucel (hydroxypropylcellulose) (HPC) 96 % of control | dose: 200.0 mg/kg/injection, schedule: Q01DX001 (ip), vehicle: Klucel (hydroxypropylcellulose) (HPC) 94 % of control

CN(C)c1ccc(C(=C2C=CC(=[N+](C)C)C=C2)c2ccc(N(C)C)cc2)cc1
inactive: [1] 97 % of control | [3] 105 % of control

O=C(c1ccccc1)c1ccc(Oc2ccc(C(=O)c3ccccc3)cc2)cc1
inactive: dose: 75.0 mg/kg/injection, schedule: Q04DX003 (ip), vehicle: Klucel (hydroxypropylcellulose) (HPC) 94 % of control | [2] 101 % of control | dose: 150.0 mg/kg/injection, schedule: Q04DX003 (ip), vehicle: Klucel (hydroxypropylcellulose) (HPC) 96 % of control | [4] 96 % of control | dose: 300.0 mg/kg/injection, schedule: Q04DX003 (ip), vehicle: Klucel (hydroxypropylcellulose) (HPC) 107 % of control | [5] 95 % of control

CCCCSC1CC(=O)N(CCCC)C1=O (stereo not given)
inactive: dose: 75.0 mg/kg/injection, schedule: Q04DX003 (ip), vehicle: saline with Tween-80 100 % of control | [14] 103 % of control | dose: 150.0 mg/kg/injection, schedule: Q04DX003 (ip), vehicle: saline with Tween-80 90 % of control | [15] 98 % of control | dose: 300.0 mg/kg/injection, schedule: Q04DX003 (ip), vehicle: saline with Tween-80 92 % of control | [16] 101 % of control

COc1ncccn1
inactive: dose: 75.0 mg/kg/injection, schedule: Q01DX009 (ip), vehicle: saline 93 % of control

CC(C)(C)NC(c1ccccc1)C(NC(C)(C)C)c1ccccc1 (stereo not given)
inactive: dose: 50.0 mg/kg/injection, schedule: Q01DX001 (ip), vehicle: saline with Tween-80 91 % of control | [14] 91 % of control | [15] 94 % of control

CC(=O)C(C(c1ccccc1)N1CCOCC1)N1CCOCC1 (stereo not given)
inactive: [11] 100 % of control | [6] 97 % of control | [12] 110 % of control | [7] 96 % of control | [13] 100 % of control | [8] 93 % of control

O=C1Nc2ccccc2C1=Nc1ccc(S(=O)(=O)Nc2nccs2)cc1
inactive: dose: 75.0 mg/kg/injection, schedule: Q01DX001 (ip), vehicle: saline 89 % of control | dose: 150.0 mg/kg/injection, schedule: Q01DX001 (ip), vehicle: saline 86 % of control | dose: 300.0 mg/kg/injection, schedule: Q01DX001 (ip), vehicle: saline 86 % of control

O=C1c2cc(Br)ccc2NC1(c1c[nH]c2ccc(Br)cc12)c1c[nH]c2ccc(Br)cc12
inactive: dose: 50.0 mg/kg/injection, schedule: Q01DX001 (ip), vehicle: saline 100 % of control | [1] 96 % of control | [3] 93 % of control | [17] 93 % of control

CC(C)=CCC(C#N)(CCN1CCCCC1)c1cccc2ccccc12 (stereo not given)
inactive: dose: 12.5 mg/kg/injection, schedule: Q04DX003 (ip), vehicle: Klucel (hydroxypropylcellulose) (HPC) 99 % of control | dose: 25.0 mg/kg/injection, schedule: Q04DX003 (ip), vehicle: Klucel (hydroxypropylcellulose) (HPC) 103 % of control | dose: 50.0 mg/kg/injection, schedule: Q04DX003 (ip), vehicle: Klucel (hydroxypropylcellulose) (HPC) 100 % of control

CC1C(C(=O)c2ccc(-c3ccccc3)cc2)N1C1CCCCC1 (stereo not given)
inactive: [6] 93 % of control | [7] 86 % of control

N#CN=C([S-])[S-].N#CN=C([S-])[S-].[Cu]
inactive: dose: 6.25 mg/kg/injection, schedule: Q01DX009 (ip), vehicle: saline 102 % of control | dose: 12.5 mg/kg/injection, schedule: Q01DX009 (ip), vehicle: saline 96 % of control | dose: 25.0 mg/kg/injection, schedule: Q01DX009 (ip), vehicle: saline 93 % of control

CC(=O)Nc1nnc(SC(C)=O)s1
inactive: [18] 95 % of control and 90 % of control | dose: 200.0 mg/kg/injection, schedule: Q01DX009 (ip), vehicle: Klucel (hydroxypropylcellulose) (HPC) 95 % of control | [10] 93 % of control and 94 % of control

COc1ccc(CCCNCCCCCCNCCCc2ccc(OC)cc2)cc1
inactive: [9] 104 % of control | dose: 50.0 mg/kg/injection, schedule: Q01DX009 (ip), vehicle: Klucel (hydroxypropylcellulose) (HPC) 93 % of control | dose: 50.0 mg/kg/injection, schedule: Q04DX002 (ip), vehicle: Klucel (hydroxypropylcellulose) (HPC) 96 % of control | [18] 86 % of control | [11] 96 % of control

CCC(CCC(C)C1CCC2C3CC=C4CC(OC(=O)CCC(=O)O)CCC4(C)C3CCC12C)C(C)C (stereo not given)
inactive: dose: 100.0 mg/kg/injection, schedule: Q01DX009 (ip), vehicle: saline with Tween-80 101 % of control | dose: 200.0 mg/kg/injection, schedule: Q01DX009 (ip), vehicle: saline with Tween-80 96 % of control | dose: 400.0 mg/kg/injection, schedule: Q01DX009 (ip), vehicle: saline with Tween-80 92 % of control

O=[N+]([O-])c1ccc(-n2ncc3cccnc32)c([N+](=O)[O-])c1
inactive: dose: 75.0 mg/kg/injection, schedule: Q01DX001 (ip), vehicle: other 94 % of control | dose: 150.0 mg/kg/injection, schedule: Q01DX001 (ip), vehicle: other 100 % of control | dose: 300.0 mg/kg/injection, schedule: Q01DX001 (ip), vehicle: other 90 % of control

CC[NH-].[Cl][Pt+2][Cl].[NH2-]
inactive: dose: 0.37 mg/kg/injection, schedule: Q01DX009 (ip), vehicle: other 111 % of control | dose: 0.75 mg/kg/injection, schedule: Q01DX001 (ip), vehicle: other 107 % of control | dose: 0.75 mg/kg/injection, schedule: Q01DX009 (ip), vehicle: other 114 % of control | dose: 1.5 mg/kg/injection, schedule: Q01DX001 (ip), vehicle: other 111 % of control | dose: 3.0 mg/kg/injection, schedule: Q01DX001 (ip), vehicle: other 114 % of control
active: dose: 3.0 mg/kg/injection, schedule: Q01DX009 (ip), vehicle: other 157 % of control

N#Cc1nc[nH]c1C(N)=O
inactive: [1] 94 % of control | [3] 94 % of control | [17] 96 % of control

CCOC(=O)c1ccc(NCc2cccc([N+](=O)[O-])c2)cc1
inactive: [14] 103 % of control | [15] 90 % of control | [16] 88 % of control
